Structures are written as SMILES.

Test [1] deals with T1, CCK2 receptor (Cavia porcellus, UniProt H0VZC5).
T1 construct: strips of muscle were dissected and suspended in isolated tissue organ baths; from tissue; host or cells: guinea-pig gastric corpeal muscle strips
T1 sequence (H0VZC5 1-426): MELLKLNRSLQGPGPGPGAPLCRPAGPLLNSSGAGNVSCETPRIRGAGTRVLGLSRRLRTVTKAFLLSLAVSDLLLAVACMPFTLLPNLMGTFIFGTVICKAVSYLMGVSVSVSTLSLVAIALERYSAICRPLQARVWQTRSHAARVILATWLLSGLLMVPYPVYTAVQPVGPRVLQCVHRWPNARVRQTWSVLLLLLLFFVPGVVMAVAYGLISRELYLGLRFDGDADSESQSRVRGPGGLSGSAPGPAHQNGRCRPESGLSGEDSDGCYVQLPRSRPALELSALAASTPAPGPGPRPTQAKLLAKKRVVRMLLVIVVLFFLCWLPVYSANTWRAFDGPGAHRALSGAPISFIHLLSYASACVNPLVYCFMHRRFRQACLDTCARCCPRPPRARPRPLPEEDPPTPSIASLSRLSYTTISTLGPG
As to the kind of experiment: Guinea-Pig Gastric Corpeal Muscle Assay (isolated muscle strip, pentagastrin-induced contraction). In kind it is cell-based. Particulars: CCK1 receptors blocked. The method, then:
Guinea-Pig Gastric Corpeal Muscle Assay
CCK2 receptor-mediated muscle contraction was measured in an isolated muscle-strip assay of guinea-pig gastric corpeal muscle according to the methods described by Roberts et al. (S. P. Roberts, E. A. Harper, G. F. Watt, V. P. Gerskowitch, R. A. Hull, N. P. Shankley, and J. W. Black, Br. J. Pharmacol., 1996, 118(7):1779-1789). In brief, strips of muscle were dissected and suspended in isolated tissue organ baths for isotonic muscle contraction recording. The baths, containing Krebs-Henseleit solution, were maintained at 24° C. and gassed continuously with 95% O2 and 5% CO2. CCK1 receptors known to be present in this assay were blocked using a selective concentration of a suitable CCK1 receptor antagonist (e.g. 2-NAP). The effectiveness of the test compounds was assessed by measuring their effect on contractile concentration-response curves obtained using a well-characterized surrogate for the hormone gastrin (pentagastrin).

Test [2] concerns the target T2, CCK2 receptor (Homo sapiens, UniProt P32239).
T2 construct: Membranes were prepared from the HEKZFP cells after induction; endogenous in cells
T2 sequence (P32239 1-447): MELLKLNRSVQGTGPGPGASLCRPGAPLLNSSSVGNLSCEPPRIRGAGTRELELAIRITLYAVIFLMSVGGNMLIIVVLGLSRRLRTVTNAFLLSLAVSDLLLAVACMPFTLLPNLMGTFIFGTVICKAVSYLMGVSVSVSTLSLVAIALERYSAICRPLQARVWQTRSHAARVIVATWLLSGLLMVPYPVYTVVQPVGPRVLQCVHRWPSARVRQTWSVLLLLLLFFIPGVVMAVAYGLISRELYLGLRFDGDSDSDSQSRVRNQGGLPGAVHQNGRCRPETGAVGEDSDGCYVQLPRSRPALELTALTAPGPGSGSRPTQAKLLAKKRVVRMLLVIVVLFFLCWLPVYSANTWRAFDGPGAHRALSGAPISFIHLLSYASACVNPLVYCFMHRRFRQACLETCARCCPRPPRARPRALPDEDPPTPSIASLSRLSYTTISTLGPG
Put plainly: Binding Assay: competition with [125I]-BH-CCK-8S in HEKZFP cell membranes. Particulars: 60 min at 21±3° C., Cheng-Prusoff. The protocol:
Zinc Finger Proteins (ZFP) specific for the CCK2R gene were identified by Sangamo Biosciences. The ZFP domain was fused with the herpes simplex virus VP16 activation domain, and the fusion protein was subsequently cloned into the pcDNA3 mammalian expression vector (Invitrogen, San Diego, Calif.). Tet-inducible cell lines expressing the coding region from the ZFP vector were created using the T-REx-293™ cell line (Invitrogen). After 2 weeks of selection in culture medium containing […] Zeocin (Invitrogen), sixty drug-resistant stable clones were isolated and analyzed for ZFP expression as well as CCK2R induction upon addition of doxycycline to the culture medium. The cell line with the most appropriate CCK2R ZFP construct was used in all further assays and was termed the HEKZFP cell line.
HEKZFP cells were grown in DMEM supplemented with L-glutamine (2 mM), penicillin (50 units/mL) and streptomycin (50 μg/mL) and 10% FBS (v/v). HEKZFP cells were treated with […] doxycycline (Sigma-Aldrich, MO; USA) for 2 days to de-repress the tet-regulated expression of the CCK2 receptor selective zinc finger proteins and were harvested using a rubber cell scraper.
Membranes were prepared from the HEKZFP cells after induction. Frozen cell pellets (−40° C.) were thawed in 14 mL of buffer A (10 mM HEPES, 130 mM NaCl, 4.7 mM KCl, 5 mM MgCl, 1 mM EGTA and 15.4 mg/100 mL bacitracin at pH 7.2), adapted from E. A. Harper et al. (Br. J. Pharmacol. (1996) 118(7):1717-1726). The thawed pellets were homogenized using a Polytron PT-10 (7×1 s). The homogenates were centrifuged for 5 min at 1500 rpm (600×g), and the resulting pellets were discarded. The supernatants were re-centrifuged in order to collect the receptor-membrane pellets (25 min 15,000 rpm; 39,000×g), which were re-suspended in buffer A.
All assays were conducted in 96-well plate (GF/B millipore filter plates) using buffer A. For the optimal cell number determination experiments, cells in concentrations ranging from 2.5×10^5 to 12.5×10^5 cells/well were incubated with 20 pM [^125I]-BH-CCK-8S (50 μL 60 pM) solution) in a total volume of 150 μL. Total binding of [^125I]-BH-CCK-8S was determined in the presence of 15 μL of buffer A. Non-specific binding of [^125I]-BH-CCK-8S was determined in the presence of 15 μL of 10 μM YF476, a CCK-2 receptor selective antagonist that is structurally unrelated to the radioligand [^125I]-BH-CCK-8S. The assay preparation was incubated for 1 h at 21±3° C., and then the assay was terminated by rapid filtration of the preparation under reduced pressure. The loaded filters were washed three times using undiluted PBS (100 μL), and then 100 μL of scintillation fluid was added to the filter plate. Bound radioactivity was determined using a Topcount (Packard BioScience, Meriden, Conn.) with a count time of 1 min. From these experiments a cell concentration of 1 pellet in 15 mL of buffer was chosen for use in other assays. To validate the radioligand concentration and incubation time for the assay, saturation and kinetic binding studies were also conducted (see M. F. Morton, The Pharmacological Characterization of Cholecystokinin Receptors in the Human Gastrointestinal Tract. PhD Thesis, University of London, 2000). […] The assay was then terminated according to the procedure outlined above.
The pKi values were determined using the equation of Y.-C. Cheng and W. H. Prusoff (Biochem. Pharmacol., 1973, 22(23):3099-3108):
To circumvent problems associated with computer-assisted data analysis of compounds with low affinity, the data obtained in the current study were weighted according to a method described by Morton. In brief, 100% and 0% specific binding were defined independently using total binding and binding obtained in the presence of a high concentration of the reference antagonist, 2-NAP.

Compound `O=C(c1ccc(Br)cc1NS(=O)(=O)c1cccc2nsnc12)N1CCCCC1` [Example 5, Benzo[1,2,5]thiadiazole-4-sulfonic acid [5-bromo-2-(piperidine-1-carbonyl)-phenyl]-amide] displayed a pK8 value at CCK2 receptor [1] (antagonism of pentagastrin concentration-response curves, 24° C.) of 8.8. The “behaviour in the muscle contraction assay” value at CCK2 receptor [1] (pentagastrin concentration-response curves) is “competitive antagonist”. For the same compound, on CCK2 receptor [2], the pKi was determined as 7.6.

As a reminder, the pKi is the negative decadic logarithm of the Ki, by convention in mol/L. A lower pKi goes with a large Ki.

The values above are taken from patent US7550492B2, “Benzo[1,2,5]thiadiazole compounds” (Janssen Pharmaceutica N.V., priority 2003, dated 2009).
